Data: publication PMC12186844 (ACS Chemical Neuroscience, 2025)
Where two headings read alike, the source gives them in different places.

How the values were obtained:
D2LR [1] = biological target: T1, D2LR (Homo sapiens, UniProt P14416); assay: inhibition of forskolin-stimulated cAMP production, BRET biosensor; format: cell-based;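 note: Flp-In-CHO cells stably expressing CAMYEL cAMP BRET sensor, agonist plus 10 µM forskolin, net BRET after forskolin-vehicle subtraction, parameters from complete operational model of allosterism and agonism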
Protocol: Flp-In-CHO cells stably coexpressing the CAMYEL biosensor and DRs were plated into white 96-well CulturPlates (Revvity) and grown overnight. The cells were equilibrated in Hank’s balanced salt solution (HBSS) at 37 °C (or 25 °C when indicated) before starting the experiment. The cells were costimulated with the agonists and 10 μM forskolin for the indicated time frames when the BRET readings were captured. Coelenterazine (Nanolight Technology, AZ) was added at a final concentration of 5 μM at least 3 min prior to measurement. […] Net BRET was determined by subtraction of the vehicle control coadded with 10 μM forskolin.
Dose–response curves were fitted using the following three-parameter equation: response=bottom+top−bottom/1+10^(logEC50−log[A]) 5 where top and bottom represent the maximal and minimal asymptote of the dose response curve, [A] is the molar concentration of the agonist, and EC50 is the molar concentration of the agonist required to give a response half-way between bottom and top.

D2LR [2] = biological target: T1, D2LR; assay: whole cell [3H]raclopride binding assay
Protocol: The binding reaction was conducted in HBSS for 1 h at 37 °C. The adherent cells were washed two times with cold 0.9% NaCl solution, and 100 μL/well scintilation liquid was added to the plate. The remaining radioactivity was detected in a MicroBeta counter.

D1Rs = settings: earlier report, reference number not given; cited from earlier work
[3] = orthosteric agonist efficacy, operational model
[4] = orthosteric ligand, radioligand binding assay

T1 sequence (P14416 whole entry): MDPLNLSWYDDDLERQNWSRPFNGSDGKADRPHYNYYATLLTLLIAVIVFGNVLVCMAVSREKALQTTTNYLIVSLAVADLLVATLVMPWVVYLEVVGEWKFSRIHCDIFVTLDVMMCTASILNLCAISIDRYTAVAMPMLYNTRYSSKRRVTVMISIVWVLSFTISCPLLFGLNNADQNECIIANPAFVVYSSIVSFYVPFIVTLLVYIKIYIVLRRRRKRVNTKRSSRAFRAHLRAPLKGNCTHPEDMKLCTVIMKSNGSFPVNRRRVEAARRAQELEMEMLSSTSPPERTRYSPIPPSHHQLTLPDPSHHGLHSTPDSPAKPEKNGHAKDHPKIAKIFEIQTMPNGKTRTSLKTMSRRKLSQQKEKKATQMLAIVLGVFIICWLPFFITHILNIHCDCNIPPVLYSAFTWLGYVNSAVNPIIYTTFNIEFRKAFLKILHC

CCCN[C@H]1CCc2nc(N)sc2C1 [pramipexole, reference compound]
LogτA (D2LR [1]): 1.05 ± 0.04
τA (D2LR [1]): 11.2

CCCN(CCc1cccs1)[C@H]1CCc2c(O)cccc2C1 [rotigotine, reference compound]
LogτA (D2LR [1]): 1.17 ± 0.05
τA (D2LR [1]): 14.8
Kd (D2LR [2]): 3.09 nM

CC(C)C[C@H]1C(=O)N2CCC[C@H]2[C@]2(O)O[C@](NC(=O)[C@@H]3C=C4c5cccc6[nH]c(Br)c(c56)C[C@H]4N(C)C3)(C(C)C)C(=O)N12 [bromocriptine, reference compound]
LogτA (D2LR [1]): 0.66 ± 0.04
τA (D2LR [1]): 4.6
Kd (D2LR [2]): 1.32 nM

CC1Cc2ccccc2N1C(=O)c1nc2ccccc2s1 (stereo not shown) [D2 PAM1, 1,3-benzothiazol-2-yl(2-methyl-2,3-dihydro-indol-1-yl)methanone]
activity at D1Rs (D1Rs): does not display activity

CCCN1CCC[C@@H](c2cccc(O)c2)C1 [S-(3)-PPP, reference compound]
LogτA (D2LR [1]; [3]): 0.33 ± 0.05
τA (D2LR [1]; [3]): 2.14

CCCN(CCC)CCc1cccc2c1CC(=O)N2 [ropirinole, reference compound]
LogτA (D2LR [1]; [3]): 1.14 ± 0.08
τA (D2LR [1]; [3]): 13.8
KA (D2LR [2]; [4]): 1350 nM
pKA (D2LR [2]; [4]): 5.87 ± 0.18

CN1CCc2cccc3c2[C@H]1Cc1ccc(O)c(O)c1-3 [apomorphine, reference compound]
LogτA (D2LR [1]): 0.93 ± 0.02
τA (D2LR [1]): 8.5

CCCN1C[C@H](CSC)C[C@@H]2c3cccc4[nH]cc(c34)C[C@H]21 [pergolide, reference compound]
LogτA (D2LR [1]; [3]): 1.01 ± 0.03
τA (D2LR [1]; [3]): 10.2
